Measurements: paper PMC3162021 (PLoS ONE, 2011)
Where a chain is given by its changes, count along the chain named.

Assays:
[1] = target: T1, α1 GlyR (Rattus norvegicus, UniProt P07727); assay: whole-cell voltage clamp, modulation of glycine current; assay type: cell-based; details: positive allosteric modulator; glycine at EC10, co-applied; pH 7.4, 20-24 °C
T1 construct: gene Glra1; homomeric α1, expressed in HEK 293 cells from pCI or pcDNA3; A52, I240, G254, S296, K385 (mature numbering); K385 fits the form without the 8-residue loop insert
T1 sequence (P07727 29-449 isoform P07727-2): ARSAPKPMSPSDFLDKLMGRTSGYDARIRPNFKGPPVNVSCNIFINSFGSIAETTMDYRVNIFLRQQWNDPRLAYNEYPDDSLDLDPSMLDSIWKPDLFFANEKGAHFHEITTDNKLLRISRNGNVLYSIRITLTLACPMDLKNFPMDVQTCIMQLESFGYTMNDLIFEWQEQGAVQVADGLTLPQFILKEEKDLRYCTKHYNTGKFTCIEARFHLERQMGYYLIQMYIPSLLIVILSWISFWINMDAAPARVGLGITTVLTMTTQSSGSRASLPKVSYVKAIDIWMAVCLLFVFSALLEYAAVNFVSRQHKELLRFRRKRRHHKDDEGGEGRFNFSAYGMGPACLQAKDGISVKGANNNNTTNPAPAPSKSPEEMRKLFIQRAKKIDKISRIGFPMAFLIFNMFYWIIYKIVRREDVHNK

[2] = target: T2, α2 GlyR (Rattus norvegicus, UniProt P22771); assay: as above; assay type: cell-based; details: allosteric inhibitor; glycine at EC10, co-applied; pH 7.4, 20-24 °C
T2 construct: gene Glra2; homomeric α2, expressed in HEK 293 cells; T59, A261, A303 (T59 fits splice form alpha-2A)
T2 sequence (P22771 28-452): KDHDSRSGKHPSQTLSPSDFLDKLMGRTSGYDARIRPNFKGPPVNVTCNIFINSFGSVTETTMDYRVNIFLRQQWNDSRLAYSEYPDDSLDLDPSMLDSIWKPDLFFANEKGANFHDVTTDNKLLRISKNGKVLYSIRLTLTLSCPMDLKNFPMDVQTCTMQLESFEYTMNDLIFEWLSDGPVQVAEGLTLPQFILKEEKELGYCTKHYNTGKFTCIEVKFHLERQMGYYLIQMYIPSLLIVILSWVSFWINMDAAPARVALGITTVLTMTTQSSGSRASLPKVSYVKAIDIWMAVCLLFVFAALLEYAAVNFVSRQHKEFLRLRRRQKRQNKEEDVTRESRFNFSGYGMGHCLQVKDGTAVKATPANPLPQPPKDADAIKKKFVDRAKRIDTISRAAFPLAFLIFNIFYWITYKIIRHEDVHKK

[3] = target: T2, α2 GlyR; assay: as above; assay type: cell-based; details: positive allosteric modulator; glycine at EC10, co-applied; pH 7.4, 20-24 °C
[4] = system: T3, α2α1; assay: whole-cell voltage clamp, concentration-response; assay type: cell-based, Rattus norvegicus; details: agonist; pH 7.4, 20-24 °C, -60 mV
T3 construct: gene Glra2; one fused subunit: α2 upstream of the TM3-4 loop (ECD to TM3), then α1 intracellular loop plus TM4; HEK 293
Text: whole-cell voltage clamp, concentration-response on α2α1

[5] = system: T4, α1α2; assay: whole-cell voltage clamp, concentration-response; assay type: cell-based, Rattus norvegicus; details: agonist; pH 7.4, 20-24 °C, -60 mV
T4 construct: gene Glra1; one fused subunit: α1 upstream of the TM3-4 loop (ECD to TM3), then α2 intracellular loop plus TM4; HEK 293
Text: whole-cell voltage clamp, concentration-response on α1α2

[6] = target: T2, α2 GlyR; assay: whole-cell voltage clamp, concentration-response; assay type: cell-based
Text: (§1) whole-cell voltage clamp, concentration-response on α2 GlyR

[7] = target: T5, α2 GlyR (Rattus norvegicus, UniProt P22771, A288G); assay: whole-cell voltage clamp, concentration-response; assay type: cell-based
T5 construct: gene Glra2; homomeric α2, expressed in HEK 293 cells; T59, A261, A303 (T59 fits splice form alpha-2A)
T5 sequence (P22771 28-452 A288G): T2 sequence (P22771 28-452) with A261G
Text: as §1

[8] = target: T6, α2 GlyR (Rattus norvegicus, UniProt P22771, A288G/A330S/T86A); assay: whole-cell voltage clamp, concentration-response; assay type: cell-based
T6 construct: gene Glra2; homomeric α2, expressed in HEK 293 cells; T59, A261, A303 (T59 fits splice form alpha-2A)
T6 sequence (P22771 28-452 T86A/A288G/A330S): T2 sequence (P22771 28-452) with T59A, A261G, A303S
Text: as §1

[9] = target: T7, α2 GlyR (Rattus norvegicus, UniProt P22771, A288G/T86A); assay: whole-cell voltage clamp, concentration-response; assay type: cell-based
T7 construct: gene Glra2; homomeric α2, expressed in HEK 293 cells; T59, A261, A303 (T59 fits splice form alpha-2A)
T7 sequence (P22771 28-452 T86A/A288G): T2 sequence (P22771 28-452) with T59A, A261G
Text: as §1

[10] = target: T8, α2 GlyR (Rattus norvegicus, UniProt P22771, T86A); assay: whole-cell voltage clamp, concentration-response; assay type: cell-based
T8 construct: gene Glra2; homomeric α2, expressed in HEK 293 cells; T59, A261, A303 (T59 fits splice form alpha-2A)
T8 sequence (P22771 28-452 T86A): T2 sequence (P22771 28-452) with T59A
Text: as §1

CCCCC/C=C\C/C=C\C/C=C\C/C=C\CCCC(=O)NCC(=O)O [NA-Gly]
% potentiation at 10 μM [1]: 101±11%
% change of current at 10 μM [2]: −56±5%

CCCCC/C=C\C/C=C\C/C=C\C/C=C\CCCC(=O)NCCO [AEA]
% potentiation at 10 μM [1]: AEA, anandamide
% potentiation at 10 μM [3]: showed consistent positive allosteric modulation of all the GlyR isoforms

NCC(=O)O [glycine]
EC50 [4]: 111 ± 1 µM
EC50 [5]: 86 ± 3 µM
EC50 [6]: 120 ± 6 µM
EC50 [7]: 217 ± 6 µM
EC50 [8]: 102 ± 2 µM
EC50 [9]: 76 ± 2 µM
EC50 [10]: 63 ± 1 µM
